Reference: ChEMBL document CHEMBL5380857, “Discovery of Potent, Selective, and Orally Bioavailable Small-Molecule Inhibitors of CDK8 for the Treatment of Cancer” (J Med Chem, 2023)

Experiments:
CDK8/Cyclin C = CDK8/Cyclin C (Homo sapiens, UniProt P49336); test: Inhibition of His tagged human recombinant CDK8/Cyclin C expressed in baculovirus expression system incubated for 15 mins by FRET-based LanthaScreen binding competition assay
MV4-11 [1] = test: Antiproliferative activity against human MV4-11 cells assessed as inhibition of cell growth incubated for 10 days and replacement with fresh media with compounds on day 5 by CTG assay; type: functional, cell-based
[2] = Metabolic stability in mouse liver microsomes assessed as intrinsic clearance at 1 uM preincubated for 10 mins followed by NADPH addition and measured for 60 mins by LC-MS/MS analysis; type: ADME, Microsome; conditions: read-out: CLH
[3] = Metabolic stability in rat liver microsomes assessed as intrinsic clearance at 1 uM preincubated for 10 mins followed by NADPH addition and measured for 60 mins by LC-MS/MS analysis; type: ADME, Microsome; conditions: read-out: CLH
[4] = Metabolic stability in human liver microsomes assessed as intrinsic clearance at 1 uM preincubated for 10 mins followed by NADPH addition and measured for 60 mins by LC-MS/MS analysis; type: ADME, Microsome; conditions: read-out: CLH
[5] = Volume of distribution in CD-1 mouse at 5 mg/kg, po or 1 mg/kg, iv administered as single dose and measured for 24 hrs by LC-MS/MS analysis; type: ADME, organism-based; conditions: in vivo
[6] = Bioavailability in CD-1 mouse at 5 mg/kg, po or 1 mg/kg, iv administered as single dose and measured for 24 hrs by LC-MS/MS analysis; type: ADME, organism-based; conditions: in vivo
[7] = biological target: Dual specificity protein kinase CLK1 (Homo sapiens, UniProt P49759); test: Binding affinity to CLK1 (unknown origin) assessed as dissociation constant by competitive binding assay
Sequence of Dual specificity protein kinase CLK1 (P49759 whole entry): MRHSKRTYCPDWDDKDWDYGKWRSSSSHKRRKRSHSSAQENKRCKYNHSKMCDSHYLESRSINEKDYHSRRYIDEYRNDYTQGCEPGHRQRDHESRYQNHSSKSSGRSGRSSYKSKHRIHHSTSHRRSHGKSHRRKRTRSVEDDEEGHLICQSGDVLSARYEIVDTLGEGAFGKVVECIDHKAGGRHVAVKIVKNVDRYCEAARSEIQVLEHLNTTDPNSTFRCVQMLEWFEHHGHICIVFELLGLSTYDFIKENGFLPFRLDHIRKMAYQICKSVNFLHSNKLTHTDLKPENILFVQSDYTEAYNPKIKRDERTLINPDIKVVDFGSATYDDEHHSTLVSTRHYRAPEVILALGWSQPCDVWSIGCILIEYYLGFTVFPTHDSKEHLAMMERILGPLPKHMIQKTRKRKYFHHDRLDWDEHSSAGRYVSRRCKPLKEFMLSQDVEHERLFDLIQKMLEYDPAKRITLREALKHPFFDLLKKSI

[8] = biological target: Dual specificity protein kinase CLK2 (Homo sapiens, UniProt P49760); test: Binding affinity to CLK2 (unknown origin) assessed as dissociation constant by competitive binding assay
Sequence of Dual specificity protein kinase CLK2 (P49760 whole entry): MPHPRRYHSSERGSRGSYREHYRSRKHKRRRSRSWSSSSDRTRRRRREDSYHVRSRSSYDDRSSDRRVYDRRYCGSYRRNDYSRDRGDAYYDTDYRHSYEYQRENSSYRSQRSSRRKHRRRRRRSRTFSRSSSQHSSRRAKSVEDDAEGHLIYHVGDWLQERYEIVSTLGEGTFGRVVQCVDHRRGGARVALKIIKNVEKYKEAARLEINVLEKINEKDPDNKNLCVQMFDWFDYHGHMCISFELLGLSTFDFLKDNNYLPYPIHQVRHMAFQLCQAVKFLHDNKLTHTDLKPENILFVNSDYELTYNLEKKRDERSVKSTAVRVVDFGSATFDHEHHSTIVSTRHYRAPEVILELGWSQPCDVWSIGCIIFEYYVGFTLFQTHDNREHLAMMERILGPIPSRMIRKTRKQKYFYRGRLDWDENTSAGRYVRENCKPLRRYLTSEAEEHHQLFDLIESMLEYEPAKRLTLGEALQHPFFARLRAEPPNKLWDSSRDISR

[9] = biological target: Dual specificity tyrosine-phosphorylation-regulated kinase 1B (Homo sapiens, UniProt Q9Y463); test: Binding affinity to DYRK1B (unknown origin) assessed as dissociation constant by competitive binding assay
Sequence of Dual specificity tyrosine-phosphorylation-regulated kinase 1B (Q9Y463 whole entry): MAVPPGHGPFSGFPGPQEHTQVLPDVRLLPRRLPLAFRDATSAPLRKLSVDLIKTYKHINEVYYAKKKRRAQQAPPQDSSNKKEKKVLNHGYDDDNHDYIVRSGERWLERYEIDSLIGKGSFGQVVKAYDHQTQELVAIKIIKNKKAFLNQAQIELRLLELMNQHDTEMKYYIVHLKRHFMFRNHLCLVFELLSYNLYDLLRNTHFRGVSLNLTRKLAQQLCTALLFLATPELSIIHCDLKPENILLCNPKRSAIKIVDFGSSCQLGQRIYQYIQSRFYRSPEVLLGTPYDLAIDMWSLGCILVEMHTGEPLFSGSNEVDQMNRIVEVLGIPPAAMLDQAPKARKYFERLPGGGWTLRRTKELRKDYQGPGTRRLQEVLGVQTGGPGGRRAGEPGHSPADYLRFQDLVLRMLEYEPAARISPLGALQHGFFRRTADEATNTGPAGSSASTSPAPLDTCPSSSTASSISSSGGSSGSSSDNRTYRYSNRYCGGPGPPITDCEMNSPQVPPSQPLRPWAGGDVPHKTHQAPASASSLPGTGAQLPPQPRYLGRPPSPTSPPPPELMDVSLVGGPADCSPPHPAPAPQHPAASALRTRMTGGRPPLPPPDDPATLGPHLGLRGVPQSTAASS

[10] = biological target: Glycogen synthase kinase-3 alpha (Homo sapiens, UniProt P49840); test: Binding affinity to GSK3A (unknown origin) assessed as dissociation constant by competitive binding assay
Sequence of Glycogen synthase kinase-3 alpha (P49840 whole entry): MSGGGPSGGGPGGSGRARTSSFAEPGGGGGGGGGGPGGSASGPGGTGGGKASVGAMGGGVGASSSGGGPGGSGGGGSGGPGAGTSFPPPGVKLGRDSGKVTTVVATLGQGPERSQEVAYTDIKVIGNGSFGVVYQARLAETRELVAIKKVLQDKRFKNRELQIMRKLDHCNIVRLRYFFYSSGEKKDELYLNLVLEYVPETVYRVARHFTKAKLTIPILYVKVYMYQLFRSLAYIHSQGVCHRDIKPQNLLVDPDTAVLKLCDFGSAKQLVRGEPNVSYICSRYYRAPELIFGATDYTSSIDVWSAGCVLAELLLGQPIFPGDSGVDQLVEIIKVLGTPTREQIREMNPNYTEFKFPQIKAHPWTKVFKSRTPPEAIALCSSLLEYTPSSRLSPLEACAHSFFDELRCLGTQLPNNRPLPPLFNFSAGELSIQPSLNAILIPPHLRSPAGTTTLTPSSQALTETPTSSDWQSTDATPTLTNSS

[11] = biological target: T1, Serine/threonine-protein kinase LATS2 (Homo sapiens, UniProt Q9NRM7); test: Binding affinity to LATS2 (unknown origin) assessed as dissociation constant by competitive binding assay
T1 sequence (Q9NRM7 whole entry): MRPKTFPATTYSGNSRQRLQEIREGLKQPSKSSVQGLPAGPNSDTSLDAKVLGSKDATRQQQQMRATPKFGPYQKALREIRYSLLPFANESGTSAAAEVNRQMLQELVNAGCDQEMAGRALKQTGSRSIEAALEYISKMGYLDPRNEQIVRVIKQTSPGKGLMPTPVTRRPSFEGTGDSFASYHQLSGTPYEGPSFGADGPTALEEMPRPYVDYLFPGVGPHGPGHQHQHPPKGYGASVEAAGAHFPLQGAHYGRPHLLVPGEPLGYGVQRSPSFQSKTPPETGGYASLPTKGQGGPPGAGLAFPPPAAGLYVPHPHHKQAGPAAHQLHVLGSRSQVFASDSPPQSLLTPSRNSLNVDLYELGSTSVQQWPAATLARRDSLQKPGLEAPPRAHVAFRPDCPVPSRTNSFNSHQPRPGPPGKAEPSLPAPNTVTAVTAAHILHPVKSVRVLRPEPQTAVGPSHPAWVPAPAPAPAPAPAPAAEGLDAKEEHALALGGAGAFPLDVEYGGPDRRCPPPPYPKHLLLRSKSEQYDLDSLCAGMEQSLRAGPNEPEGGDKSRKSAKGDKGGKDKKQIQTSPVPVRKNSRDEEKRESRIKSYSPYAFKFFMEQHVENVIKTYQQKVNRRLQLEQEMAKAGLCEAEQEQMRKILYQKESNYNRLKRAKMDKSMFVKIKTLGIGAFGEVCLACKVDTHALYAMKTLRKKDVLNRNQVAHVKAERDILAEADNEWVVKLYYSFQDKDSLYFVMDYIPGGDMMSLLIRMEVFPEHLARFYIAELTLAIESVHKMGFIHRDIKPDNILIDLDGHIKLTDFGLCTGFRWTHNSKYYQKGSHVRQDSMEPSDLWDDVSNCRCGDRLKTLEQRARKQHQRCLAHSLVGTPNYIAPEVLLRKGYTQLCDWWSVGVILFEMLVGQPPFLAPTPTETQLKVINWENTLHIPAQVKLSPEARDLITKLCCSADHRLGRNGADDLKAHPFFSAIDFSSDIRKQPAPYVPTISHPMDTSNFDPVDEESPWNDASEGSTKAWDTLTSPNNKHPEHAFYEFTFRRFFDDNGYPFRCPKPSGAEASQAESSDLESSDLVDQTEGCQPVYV

[12] = biological target: Phosphatidylinositol 3-kinase catalytic subunit type 3 (Homo sapiens, UniProt Q8NEB9); test: Binding affinity to VPS34 (unknown origin) assessed as dissociation constant by competitive binding assay
Sequence of Phosphatidylinositol 3-kinase catalytic subunit type 3 (Q8NEB9 whole entry): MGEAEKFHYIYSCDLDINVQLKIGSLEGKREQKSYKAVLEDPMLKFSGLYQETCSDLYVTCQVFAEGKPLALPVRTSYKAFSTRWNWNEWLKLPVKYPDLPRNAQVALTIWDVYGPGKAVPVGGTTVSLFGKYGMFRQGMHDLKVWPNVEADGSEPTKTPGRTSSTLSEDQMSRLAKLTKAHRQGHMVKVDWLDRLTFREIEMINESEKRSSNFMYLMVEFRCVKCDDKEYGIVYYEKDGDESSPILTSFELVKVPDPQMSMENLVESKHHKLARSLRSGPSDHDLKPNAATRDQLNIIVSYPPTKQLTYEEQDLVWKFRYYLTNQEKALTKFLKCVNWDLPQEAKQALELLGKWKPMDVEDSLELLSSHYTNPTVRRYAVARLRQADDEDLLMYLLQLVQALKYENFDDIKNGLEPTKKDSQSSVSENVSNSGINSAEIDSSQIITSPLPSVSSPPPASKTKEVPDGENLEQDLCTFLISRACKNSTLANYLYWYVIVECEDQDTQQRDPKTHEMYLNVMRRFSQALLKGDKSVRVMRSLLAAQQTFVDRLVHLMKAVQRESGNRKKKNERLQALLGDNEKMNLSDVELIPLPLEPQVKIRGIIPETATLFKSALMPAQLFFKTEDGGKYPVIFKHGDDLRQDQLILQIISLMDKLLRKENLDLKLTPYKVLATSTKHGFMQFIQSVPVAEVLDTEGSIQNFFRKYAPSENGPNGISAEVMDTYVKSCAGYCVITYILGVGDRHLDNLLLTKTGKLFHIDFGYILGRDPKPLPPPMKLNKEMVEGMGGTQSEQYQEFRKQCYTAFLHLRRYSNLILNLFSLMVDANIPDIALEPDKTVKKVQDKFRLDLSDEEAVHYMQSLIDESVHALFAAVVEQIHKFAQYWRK

[13] = biological target: Glycogen synthase kinase-3 beta (Homo sapiens, UniProt P49841)
Sequence of Glycogen synthase kinase-3 beta (P49841 whole entry): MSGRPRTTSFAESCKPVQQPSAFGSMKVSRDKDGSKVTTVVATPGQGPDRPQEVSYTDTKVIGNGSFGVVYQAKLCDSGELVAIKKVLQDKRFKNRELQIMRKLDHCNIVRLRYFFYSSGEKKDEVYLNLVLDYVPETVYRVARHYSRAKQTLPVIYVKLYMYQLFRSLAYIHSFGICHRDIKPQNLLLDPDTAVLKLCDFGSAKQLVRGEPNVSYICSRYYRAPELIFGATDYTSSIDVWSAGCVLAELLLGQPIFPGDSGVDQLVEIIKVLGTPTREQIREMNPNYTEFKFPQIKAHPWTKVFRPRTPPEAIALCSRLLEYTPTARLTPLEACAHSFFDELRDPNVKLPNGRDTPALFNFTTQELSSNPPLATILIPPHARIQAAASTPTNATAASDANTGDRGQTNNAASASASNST
Description: Binding affinity to GSK3B (unknown origin) assessed as dissociation constant by competitive binding assay

MV4-11 [14] = test: Antitumor activity against human MV4-11 cells xenografted in BALB/c nude mouse assessed as tumor growth inhibition at 60 mg/kg, po qd administered by gavage for 17 days and measured 3 times per week by caliper method relative to control; type: functional; conditions: MV4-11, 408 h, time 17 day, read-out: TGI

Sequence of CDK8/Cyclin C (P49336 whole entry): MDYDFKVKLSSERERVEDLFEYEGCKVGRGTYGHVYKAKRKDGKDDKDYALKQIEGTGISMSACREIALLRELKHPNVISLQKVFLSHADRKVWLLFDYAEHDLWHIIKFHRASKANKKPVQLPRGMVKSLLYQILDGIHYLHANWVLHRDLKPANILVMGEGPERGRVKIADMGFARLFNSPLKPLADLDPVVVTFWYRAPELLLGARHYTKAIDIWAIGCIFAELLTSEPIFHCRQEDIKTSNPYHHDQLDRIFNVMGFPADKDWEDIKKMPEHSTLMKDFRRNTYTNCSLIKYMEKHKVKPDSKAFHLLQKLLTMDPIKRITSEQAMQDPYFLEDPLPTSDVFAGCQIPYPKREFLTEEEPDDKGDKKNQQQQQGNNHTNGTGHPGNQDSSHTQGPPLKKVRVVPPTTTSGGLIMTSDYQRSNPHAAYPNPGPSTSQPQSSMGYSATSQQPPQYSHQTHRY
Sequence of CDK8/Cyclin C (P24863 whole entry, further chain): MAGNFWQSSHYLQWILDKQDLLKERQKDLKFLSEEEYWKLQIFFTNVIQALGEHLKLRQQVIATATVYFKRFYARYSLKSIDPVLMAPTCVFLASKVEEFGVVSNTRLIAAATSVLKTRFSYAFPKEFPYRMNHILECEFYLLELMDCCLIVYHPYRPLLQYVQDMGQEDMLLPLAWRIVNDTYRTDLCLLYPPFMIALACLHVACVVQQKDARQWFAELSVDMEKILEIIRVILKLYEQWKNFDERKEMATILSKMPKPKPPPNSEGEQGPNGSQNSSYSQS

Row | Structure (SMILES) | IC50 (CDK8/Cyclin C) | IC50 (MV4-11 [1]) | CLint scaled at 1 µM [2] | CLint scaled at 1 µM [3] | CLint scaled at 1 µM [4] | further results
1 | Cc1n[nH]c2ccc(-c3nnc(C(F)(F)F)n3Cc3ccc(Cl)cc3)cc12 | 4.82 nM |  |  |  |  | 
2 | CNc1n[nH]c2ccc(-c3nnc4n3C(c3ccc(Cl)cc3)CC4)cc12 (racemic) | 5.4 nM |  |  |  |  | 
3 | Cc1n[nH]c2ccc(-c3nnn(C)c3Cc3ccc(Cl)cc3)cc12 | 0.4 nM | 4.75 nM | 823 mL/min/kg | 385 mL/min/kg | 66.1 mL/min/kg | 
4 | Cc1n[nH]c2ccc(-c3nnc4n3[C@H](c3ccc(Cl)cc3)CCC4)cc12 | 0.37 nM |  | 843 mL/min/kg |  | 87.1 mL/min/kg | 
5 | Cc1n[nH]c2ccc(-c3nnc4n3[C@H](c3ccc(Cl)cc3)COC4)cc12 | 0.63 nM | 7.6 nM | 720 mL/min/kg | 118 mL/min/kg | 92 mL/min/kg | Vd [5]: 1.2 L/kg; bioavailability [6]: 19.4%
6 | CNc1n[nH]c2ncc(-c3nnc4n3C(c3ccc(Cl)cc3)CC4)cc12 (racemic) | 35.7 nM |  |  |  |  | 
7 | Cc1n[nH]c2ncc(-c3nnc4n3[C@H](c3ccc(Cl)cc3)CC4)cc12 | 1.5 nM | 24.6 nM | 368 mL/min/kg | 104 mL/min/kg | < 8.6 mL/min/kg | Vd [5]: 0.7 L/kg; bioavailability [6]: 63.4%; Kd [7]: 86 nM; Kd [8]: 82 nM; Kd [9]: 2100 nM; Kd [10]: 6.5 nM; Kd [11]: 730 nM; Kd [12]: 2900 nM; Kd [13]: 3.8 nM
8 | COc1nnc(-c2ccc3[nH]nc(C)c3c2)n1Cc1ccc(Cl)cc1 | 82.9 nM |  |  |  |  | 
9 | Cc1n[nH]c2ccc(-c3nnc4n3[C@H](c3ccc(Cl)cc3)CNC4)cc12 | 0.48 nM |  | 1310 mL/min/kg |  | 64.9 mL/min/kg | 
10 | Cc1n[nH]c2ccc(-c3ncc(C)n3Cc3ccc(Cl)cc3)cc12 | 7.32 nM | 367 nM |  |  |  | 
11 | Cc1c(Br)c(Br)c2c3c1nc(N1CCNCC1)n3CCC2 [SEL-120 FREE BASE] | 14.1 nM | 249 nM |  |  |  | inhibition in vivo at 60 mg/kg (MV4-11 [14]): 55.6%
12 | Cc1n[nH]c2ccc(-c3nnc(C)n3Cc3ccc(Cl)cc3)nc12 | 3.29 nM |  |  |  |  | 
13 | Cc1n[nH]c2ccc(-c3nnc4n3[C@H](c3ccc(Cl)cc3)CC4)cc12 | 0.4 nM | 2.4 nM | 540 mL/min/kg | 151 mL/min/kg | 23.1 mL/min/kg | Vd [5]: 0.7 L/kg; bioavailability [6]: 63.7%; Kd [7]: 15 nM; Kd [8]: 2.1 nM; Kd [9]: 330 nM; Kd [10]: 4.3 nM; Kd [11]: 18 nM; Kd [12]: 68 nM
14 | Cc1n[nH]c2ncc(-c3nnc(C)n3Cc3ccc(Cl)cc3)cc12 | 17.1 nM |  |  |  |  | 
15 | Cc1n[nH]c2ccc(-c3nnc(C)n3Cc3ccc(Cl)cc3)cc12 | 0.49 nM | 8.6 nM | 342 mL/min/kg | 54.4 mL/min/kg | 12.2 mL/min/kg | Vd [5]: 0.8 L/kg; bioavailability [6]: 82.1%; Kd [7]: 43 nM; Kd [8]: 36 nM; Kd [9]: 1400 nM; Kd [10]: 120 nM; Kd [11]: 38 nM; Kd [12]: 1800 nM; Kd [13]: 56 nM
16 | Cc1n[nH]c2ccc(-c3nnc(C)n3Cc3ccc(C#N)cc3)cc12 | 6.14 nM |  |  |  |  | 
17 | Cc1nnc(-c2ccc3[nH]nc(Cl)c3c2)n1Cc1ccc(Cl)cc1 | 0.88 nM | 72.8 nM | 273 mL/min/kg | 54.5 mL/min/kg | 10.8 mL/min/kg | Vd [5]: 2.7 L/kg; bioavailability [6]: 50.8%
18 | Cc1n[nH]c2ccc(-c3nnc(C)n3Cc3ccc(Cl)cn3)cc12 | 80 nM |  |  |  |  | 
19 | Cc1n[nH]c2ccc(-c3nnc(C)n3C(C)c3ccc(Cl)cc3)cc12 (stereo not given) | 277 nM |  |  |  |  | 
20 | Cc1n[nH]c2ccc(-c3nnc4n3[C@H](c3ccc(Cl)cc3)CC4)nc12 | 0.9 nM | 11.7 nM | 339 mL/min/kg | 270 mL/min/kg | < 8.6 mL/min/kg | Vd [5]: 0.4 L/kg; bioavailability [6]: 63.7%; Kd [7]: 71 nM; Kd [8]: 64 nM; Kd [9]: 1300 nM; Kd [10]: 74 nM; Kd [11]: 460 nM; Kd [12]: 20 nM; Kd [13]: 39 nM
21 | Cc1n[nH]c2ccc(-c3cnn(C)c3Cc3ccc(Cl)cc3)cc12 | 0.71 nM |  | 536 mL/min/kg |  | 59.2 mL/min/kg | 
22 | Cc1n[nH]c2ccc(-c3nnc(O)n3Cc3ccc(Cl)cc3)cc12 | > 1000 nM |  |  |  |  | 
23 | Cc1n[nH]c2ccc(-c3nnc4n3[C@H](c3ccc(Cl)cc3)CN(C)C4)cc12 | 0.83 nM | 6.2 nM |  |  |  | 
